Reference: the NIST ThermoML archive (doi:10.1021/je060271a)
Values joined by “and” are separate entries in the source; they are usually repeats but may differ in a detail not shown here. Equal entries are not always repeated.

Conditions: 283.14 K, Liquid, Vibrating tube method

CCCCCCC(=O)OCC(COC(=O)CCCCCC)(COC(=O)CCCCCC)COC(=O)CCCCCC [pentaerythritol tetraheptanoate]
Conditions | mass density
99.9 kPa | 986 kg/m3
100.4 kPa | 985.9 kg/m3 and 986 kg/m3
100.6 kPa | 985.8 kg/m3
100.8 kPa | 985.9 kg/m3
100.9 kPa | 985.9 kg/m3
104.1 kPa | 985.9 kg/m3
108.1 kPa | 985.9 kg/m3
116.6 kPa | 986 kg/m3
124.9 kPa | 986 kg/m3
130.8 kPa | 986 kg/m3
135.4 kPa | 985.9 kg/m3
142 kPa | 985.9 kg/m3
146.3 kPa | 986 kg/m3
150.6 kPa | 986 kg/m3
154.5 kPa | 986 kg/m3
158.5 kPa | 986 kg/m3
164.2 kPa | 986 kg/m3
168.9 kPa | 985.9 kg/m3
174.6 kPa | 986 kg/m3
181.1 kPa | 986 kg/m3
189.8 kPa | 986 kg/m3
198.1 kPa | 986 kg/m3
208.7 kPa | 986 kg/m3
218.8 kPa | 986 kg/m3
231 kPa | 985.9 kg/m3
246.9 kPa | 986 kg/m3
262.2 kPa | 986 kg/m3
279.6 kPa | 985.9 kg/m3
304.3 kPa | 985.9 kg/m3
328.1 kPa | 986 kg/m3
354.9 kPa | 986 kg/m3
383.4 kPa | 986.2 kg/m3
410.5 kPa | 986.1 kg/m3
428.6 kPa | 986.2 kg/m3
445.6 kPa | 986.1 kg/m3
459.5 kPa | 986.2 kg/m3
470.3 kPa | 986.1 kg/m3
483.1 kPa | 986.2 kg/m3
493.7 kPa | 986.2 kg/m3
504.3 kPa | 986.1 kg/m3
518.6 kPa | 986.2 kg/m3
531.3 kPa | 986.2 kg/m3
543.6 kPa | 986.2 kg/m3
560.1 kPa | 986.2 kg/m3
574.5 kPa | 986.2 kg/m3
588.8 kPa | 986.2 kg/m3
607.2 kPa | 986.2 kg/m3
623.7 kPa | 986.2 kg/m3
641.4 kPa | 986.2 kg/m3
659.1 kPa | 986.3 kg/m3
682.8 kPa | 986.3 kg/m3
703.5 kPa | 986.3 kg/m3
725 kPa | 986.2 kg/m3
748.3 kPa | 986.2 kg/m3
777.3 kPa | 986.4 kg/m3
803.3 kPa | 986.3 kg/m3
830.4 kPa | 986.3 kg/m3
857.2 kPa | 986.4 kg/m3
881.9 kPa | 986.4 kg/m3
894.4 kPa | 986.4 kg/m3
910.2 kPa | 986.5 kg/m3
922.9 kPa | 986.5 kg/m3
936.1 kPa | 986.4 kg/m3
950.3 kPa | 986.3 kg/m3
964.4 kPa | 986.4 kg/m3
981.7 kPa | 986.3 kg/m3
997.4 kPa | 986.4 kg/m3
1013.2 kPa | 986.5 kg/m3
1029.5 kPa | 986.4 kg/m3
1046.2 kPa | 986.4 kg/m3
1066 kPa | 986.6 kg/m3
1084 kPa | 986.4 kg/m3
1102.6 kPa | 986.5 kg/m3
1119.8 kPa | 986.5 kg/m3
1142.7 kPa | 986.6 kg/m3
1162 kPa | 986.6 kg/m3
1186.3 kPa | 986.5 kg/m3
1207.3 kPa | 986.5 kg/m3
1229.4 kPa | 986.6 kg/m3
1252.5 kPa | 986.5 kg/m3
1277.3 kPa | 986.7 kg/m3
1301.1 kPa | 986.6 kg/m3
1329.6 kPa | 986.7 kg/m3
1354.8 kPa | 986.6 kg/m3
1386.2 kPa | 986.6 kg/m3
1412.2 kPa | 986.7 kg/m3
1440.9 kPa | 986.6 kg/m3
1469.5 kPa | 986.6 kg/m3
1505.1 kPa | 986.6 kg/m3
1536 kPa | 986.8 kg/m3
1568.8 kPa | 986.7 kg/m3
1609.6 kPa | 986.8 kg/m3
1645.7 kPa | 986.8 kg/m3
1682.5 kPa | 986.8 kg/m3
1719 kPa | 986.8 kg/m3
1765.3 kPa | 986.9 kg/m3
1804.9 kPa | 986.9 kg/m3
1848.1 kPa | 986.9 kg/m3
1898.4 kPa | 986.8 kg/m3
1940.3 kPa | 987 kg/m3
1966.1 kPa | 986.9 kg/m3
1976.7 kPa | 987 kg/m3
1988.3 kPa | 987.1 kg/m3
2001 kPa | 987 kg/m3
2021 kPa | 987 kg/m3
2110 kPa | 987 kg/m3
2201.2 kPa | 987.1 kg/m3
2343.8 kPa | 987.2 kg/m3
2462.5 kPa | 987.4 kg/m3
2487.8 kPa | 987.3 kg/m3
2506.9 kPa | 987.3 kg/m3
2521.6 kPa | 987.2 kg/m3
2536.4 kPa | 987.3 kg/m3
2553.4 kPa | 987.3 kg/m3
2568.1 kPa | 987.2 kg/m3
2582.9 kPa | 987.4 kg/m3
2600 kPa | 987.4 kg/m3
2614.3 kPa | 987.4 kg/m3
2628.5 kPa | 987.3 kg/m3
2642.2 kPa | 987.3 kg/m3
2656.6 kPa | 987.4 kg/m3
2675.1 kPa | 987.4 kg/m3
2688.8 kPa | 987.5 kg/m3
2704.6 kPa | 987.4 kg/m3
2719.9 kPa | 987.5 kg/m3
2736 kPa | 987.6 kg/m3
2751.8 kPa | 987.5 kg/m3
2766.5 kPa | 987.5 kg/m3
2800.3 kPa | 987.5 kg/m3
2816.5 kPa | 987.5 kg/m3
2832.1 kPa | 987.5 kg/m3
2851.8 kPa | 987.5 kg/m3
2867.8 kPa | 987.5 kg/m3
2885.5 kPa | 987.5 kg/m3
2902.1 kPa | 987.6 kg/m3
2918.6 kPa | 987.6 kg/m3
2935.2 kPa | 987.6 kg/m3
2954.3 kPa | 987.6 kg/m3
2972 kPa | 987.8 kg/m3
2987.9 kPa | 987.4 kg/m3
3008.9 kPa | 987.6 kg/m3
3025.6 kPa | 987.6 kg/m3
3043.9 kPa | 987.6 kg/m3
3062.1 kPa | 987.7 kg/m3
3082.8 kPa | 987.8 kg/m3
3101.3 kPa | 987.7 kg/m3
3118.5 kPa | 987.7 kg/m3
3140.8 kPa | 987.7 kg/m3
3158.5 kPa | 987.7 kg/m3
3176.4 kPa | 987.8 kg/m3
3198.6 kPa | 987.7 kg/m3
3218.2 kPa | 987.7 kg/m3
3237.6 kPa | 987.8 kg/m3
3256.6 kPa | 987.8 kg/m3
3279 kPa | 987.8 kg/m3
3300 kPa | 987.8 kg/m3
3320.3 kPa | 987.7 kg/m3
3339.7 kPa | 987.8 kg/m3
3362.4 kPa | 987.8 kg/m3
3382.2 kPa | 987.9 kg/m3
3402.9 kPa | 987.8 kg/m3
3422.4 kPa | 987.9 kg/m3
3448.4 kPa | 987.9 kg/m3
3468.1 kPa | 987.9 kg/m3
3488.6 kPa | 987.9 kg/m3
3515.4 kPa | 987.8 kg/m3
3535.7 kPa | 988 kg/m3
3561.2 kPa | 987.9 kg/m3
3584.9 kPa | 987.9 kg/m3
3606.2 kPa | 987.9 kg/m3
3628.7 kPa | 988 kg/m3
3652.3 kPa | 987.9 kg/m3
3675 kPa | 988 kg/m3
3703.2 kPa | 988 kg/m3
3725.9 kPa | 988 kg/m3
3750.4 kPa | 988.1 kg/m3
3777.7 kPa | 988.1 kg/m3
3800.4 kPa | 988.1 kg/m3
3825.2 kPa | 988 kg/m3
3853.3 kPa | 988 kg/m3
3879.1 kPa | 988 kg/m3
3903.5 kPa | 988 kg/m3
3929.1 kPa | 988.2 kg/m3
3959.3 kPa | 988.2 kg/m3
3983.7 kPa | 988.1 kg/m3
4010 kPa | 988.4 kg/m3
4036.2 kPa | 988.2 kg/m3
4066.7 kPa | 988.2 kg/m3
4093.2 kPa | 988.2 kg/m3
4121.2 kPa | 988.2 kg/m3
4152.6 kPa | 988.3 kg/m3
4181.1 kPa | 988.3 kg/m3
4209.5 kPa | 988.3 kg/m3
4236.7 kPa | 988.3 kg/m3
4257.5 kPa | 988.4 kg/m3
4379.6 kPa | 988.4 kg/m3
4380.1 kPa | 988.4 kg/m3
4380.5 kPa | 988.4 kg/m3
4380.8 kPa | 988.4 kg/m3
4381 kPa | 988.4 kg/m3
4381.5 kPa | 988.3 kg/m3
4381.9 kPa | 988.6 kg/m3
4382.2 kPa | 988.4 kg/m3
4382.4 kPa | 988.4 kg/m3
4382.6 kPa | 988.3 kg/m3 and 988.5 kg/m3
4382.7 kPa | 988.4 kg/m3
4382.9 kPa | 988.4 kg/m3 and 988.5 kg/m3
4383.1 kPa | 988.4 kg/m3
4383.2 kPa | 988.3 kg/m3 and 988.4 kg/m3
4383.4 kPa | 988.5 kg/m3 and 988.4 kg/m3
4383.6 kPa | 988.3 kg/m3 and 988.4 kg/m3 and 988.5 kg/m3
4383.8 kPa | 988.5 kg/m3 and 988.4 kg/m3
4383.9 kPa | 988.4 kg/m3 and 988.5 kg/m3 and 988.3 kg/m3
4384.1 kPa | 988.4 kg/m3 [middle of 5 runs]
4384.3 kPa | 988.4 kg/m3 and 988.5 kg/m3 and 988.3 kg/m3
4384.5 kPa | 988.4 kg/m3 and 988.5 kg/m3 and 988.3 kg/m3
4384.6 kPa | 988.5 kg/m3 and 988.4 kg/m3
4384.8 kPa | 988.4 kg/m3 and 988.3 kg/m3
4385 kPa | 988.4 kg/m3 and 988.3 kg/m3 and 988.5 kg/m3
4385.1 kPa | 988.4 kg/m3 and 988.3 kg/m3 and 988.5 kg/m3
4385.3 kPa | 988.4 kg/m3 and 988.5 kg/m3
4385.4 kPa | 988.4 kg/m3
4385.5 kPa | 988.4 kg/m3 and 988.3 kg/m3
